Reference: EP3046573B1, “AMYLIN ANALOGUES” (Zealand Pharma A/S, priority 2013, dated 2015)
Numbered stars: 1 amine (or outer) side, 2 acyl side, 3 side chain; on linkers, the order of the positions; unused ones are H or OH. Bridge positions count the residues as written; N and C are the ends. Square brackets hold non-standard residues; d marks the D form. Peptide text beside a SMILES is read from it. * marks the point of attachment. C20 diacid = O=C(O)CCCCCCCCCCCCCCCCCCC(=O)*; γGlu = O=C(O)[C@H](CCC(=O)[*:2])N[*:1]; NMeI = CC[C@H](C)[C@H](NC)C(=O)O; Sar = CNCC(=O)O

Tests used:
[1] = Solubility assessment (turbidity absorbance at 325 nm); assay type: physicochemical; settings: stock 2 mg/ml diluted 1:1, ambient temperature (typically 25°C), n=1; for Solubility, Acetate buffer pH 4: 100 mM acetate buffer pH 4.0; for Solubility, Acetate buffer pH 5: 100 mM acetate buffer pH 5.0; for Solubility, Histidine buffer pH 6: 100 mM histidine buffer pH 6.0; for Solubility, Histidine buffer pH 7: 100 mM histidine buffer pH 7.0; for Solubility, Phosphate buffer pH 6: 100 mM phosphate buffer pH 6.0; for Solubility, Phosphate buffer pH 7: 100 mM phosphate buffer pH 7.0; for Solubility, Phosphate buffer pH 7.5: 100 mM phosphate buffer pH7.5
Method in brief: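 Turbidimetric screen across pH 4.0–7.5 in 100 mM acetate, histidine and phosphate buffers. A 2 mg/ml peptide stock (pH 2.5) was diluted 1:1 into each, then A325 measured at ambient temperature; values ≤ 0.02 AU denoted solubility of 1 mg/ml or more.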

[2] = molecular target: T1, human calcitonin receptor (hCTR2) (Homo sapiens, UniProt P30988); experiment: hCTR2 assay: induction of cAMP (AlphaScreen cAMP Assay kit) in COS7 cells expressing hCTR2; assay type: cell-based; settings: cAMP induction in COS7 cells expressing hCTR2; average of a minimum of 3 determinations; read-out: hCTR2 EC50
T1 construct: expressed in transfected cells
T1 sequence (P30988 25-474): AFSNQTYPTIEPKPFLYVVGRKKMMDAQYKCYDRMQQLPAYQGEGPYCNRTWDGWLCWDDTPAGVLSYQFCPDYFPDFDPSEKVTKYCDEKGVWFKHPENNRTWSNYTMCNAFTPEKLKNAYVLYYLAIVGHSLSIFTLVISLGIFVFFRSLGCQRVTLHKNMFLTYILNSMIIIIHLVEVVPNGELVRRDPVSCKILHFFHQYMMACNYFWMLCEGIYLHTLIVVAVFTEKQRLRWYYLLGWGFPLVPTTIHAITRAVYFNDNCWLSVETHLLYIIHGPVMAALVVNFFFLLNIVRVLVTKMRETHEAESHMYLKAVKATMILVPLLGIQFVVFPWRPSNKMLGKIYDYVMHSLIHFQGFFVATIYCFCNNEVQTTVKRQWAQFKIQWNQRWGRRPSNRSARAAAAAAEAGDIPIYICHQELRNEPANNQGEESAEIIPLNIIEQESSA
Method in brief: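 Cells were seeded one day ahead, washed, then exposed to rising peptide concentrations for 15 min at 37° C in the presence of 100 µM IBMX. After lysis for 10 min at room temperature, cAMP was quantified by AlphaScreen and EC50 values derived by 4PL fitting.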

CC[C@H](C)[C@@H](C(=O)N[C@@H](CC(C)C)C(=O)N[C@@H](CO)C(=O)N[C@@H](CO)C(=O)N[C@H](C(=O)N[C@@H](CC(N)=O)C(=O)N[C@H](C(=O)NCC(=O)N[C@@H](CO)C(=O)N[C@@H](CC(N)=O)C(=O)N[C@H](C(=O)N1CCC[C@H]1C(N)=O)[C@@H](C)O)C(C)C)[C@@H](C)O)N(C)C(=O)[C@H](C)NC(=O)CN(C)C(=O)[C@H](Cc1ccccc1)NC(=O)[C@H](CC(N)=O)NC(=O)[C@H](CC(N)=O)NC(=O)[C@H](Cc1c[nH]cn1)NC(=O)[C@H](Cc1c[nH]cn1)NC(=O)[C@H](CC(C)C)NC(=O)[C@H](Cc1ccccc1)NC(=O)[C@H](CCC(=O)O)NC(=O)[C@H](C)NC(=O)[C@H](CC(C)C)NC(=O)[C@H](CCCNC(=N)N)NC(=O)[C@H](CCC(N)=O)NC(=O)[C@@H](NC(=O)[C@H](C)NC(=O)[C@@H]1CSSC[C@H](NC(=O)[C@H](CCCNC(=N)N)NC(=O)CC[C@H](NC(=O)CCCCCCCCCCCCCCCCCCC(=O)O)C(=O)O)C(=O)N[C@@H](CC(N)=O)C(=O)N[C@@H]([C@@H](C)O)C(=O)N[C@@H](C)C(=O)N[C@@H]([C@@H](C)O)C(=O)N1)[C@@H](C)O [Compound 47, [19CD]-isoGlu-RC()NTATC()ATQRLAEFLHHNNF-Gly(Me)-A-Ile(Me)-LSSTNVGSNTP-NH2] ({C20 diacid-γGlu}-RCNTATCATQRLAEFLHHNNF[Sar]A[NMeI]LSSTNVGSNTP-NH2; disulfide 2-7)
Solubility, Acetate buffer pH 4 [1]: SS (SS indicates solubility ≥ 1mg/ml)
Solubility, Acetate buffer pH 5 [1]: SS (SS indicates solubility ≥ 1mg/ml)
Solubility, Histidine buffer pH 6 [1]: SS (SS indicates solubility ≥ 1mg/ml)
Solubility, Histidine buffer pH 7 [1]: SS (SS indicates solubility ≥ 1mg/ml)
Solubility, Phosphate buffer pH 6 [1]: SS (SS indicates solubility ≥ 1mg/ml)
Solubility, Phosphate buffer pH 7 [1]: SS (SS indicates solubility ≥ 1mg/ml)
Solubility, Phosphate buffer pH 7.5 [1]: SS (SS indicates solubility ≥ 1mg/ml)
EC50 [2]: 60 pM

CC[C@H](C)[C@@H](C(=O)N[C@@H](CC(C)C)C(=O)N[C@@H](CO)C(=O)N[C@@H](CO)C(=O)N[C@H](C(=O)N[C@@H](CC(N)=O)C(=O)N[C@H](C(=O)NCC(=O)N[C@@H](CO)C(=O)N[C@@H](CC(N)=O)C(=O)N[C@H](C(=O)N1CCC[C@H]1C(N)=O)[C@@H](C)O)C(C)C)[C@@H](C)O)N(C)C(=O)CN(C)C(=O)[C@H](Cc1ccccc1)NC(=O)[C@H](CC(N)=O)NC(=O)[C@H](CC(N)=O)NC(=O)[C@H](Cc1c[nH]cn1)NC(=O)[C@H](Cc1c[nH]cn1)NC(=O)[C@H](CC(C)C)NC(=O)[C@H](Cc1ccccc1)NC(=O)[C@H](CCC(=O)O)NC(=O)[C@H](C)NC(=O)[C@H](CC(C)C)NC(=O)[C@H](CCCNC(=N)N)NC(=O)[C@H](CCC(N)=O)NC(=O)[C@@H](NC(=O)[C@H](C)NC(=O)[C@@H]1CSSC[C@H](NC(=O)[C@H](CCCNC(=N)N)NC(=O)CC[C@H](NC(=O)CCCCCCCCCCCCCCCCCCC(=O)O)C(=O)O)C(=O)N[C@@H](CC(N)=O)C(=O)N[C@@H]([C@@H](C)O)C(=O)N[C@@H](C)C(=O)N[C@@H]([C@@H](C)O)C(=O)N1)[C@@H](C)O [Compound 48, [19CD]-isoGlu-RC()NTATC()ATQRLAEFLHHNNF-Gly(Me)-Ile(Me)-LSSTNVGSNTP-NH2] ({C20 diacid-γGlu}-RCNTATCATQRLAEFLHHNNF[Sar][NMeI]LSSTNVGSNTP-NH2; disulfide 2-7)
Solubility, Acetate buffer pH 4 [1]: SS (SS indicates solubility ≥ 1mg/ml)
Solubility, Acetate buffer pH 5 [1]: SS (SS indicates solubility ≥ 1mg/ml)
Solubility, Histidine buffer pH 6 [1]: SS (SS indicates solubility ≥ 1mg/ml)
Solubility, Histidine buffer pH 7 [1]: SS (SS indicates solubility ≥ 1mg/ml)
Solubility, Phosphate buffer pH 6 [1]: SS (SS indicates solubility ≥ 1mg/ml)
Solubility, Phosphate buffer pH 7 [1]: SS (SS indicates solubility ≥ 1mg/ml)
Solubility, Phosphate buffer pH 7.5 [1]: SS (SS indicates solubility ≥ 1mg/ml)
EC50 [2]: 120 pM

CC[C@H](C)[C@@H](C(=O)N[C@@H](CC(C)C)C(=O)N[C@@H](CO)C(=O)N[C@@H](CO)C(=O)N[C@H](C(=O)N[C@@H](CC(N)=O)C(=O)N[C@H](C(=O)NCC(=O)N[C@@H](CO)C(=O)N[C@@H](CC(N)=O)C(=O)N[C@H](C(=O)N1CCC[C@H]1C(N)=O)[C@@H](C)O)C(C)C)[C@@H](C)O)N(C)C(=O)[C@H](C)NC(=O)[C@H](Cc1ccccc1)NC(=O)[C@H](CC(N)=O)NC(=O)[C@H](CC(N)=O)NC(=O)[C@H](CO)NC(=O)[C@H](CO)NC(=O)[C@H](Cc1c[nH]cn1)NC(=O)[C@H](Cc1c[nH]cn1)NC(=O)[C@H](CC(C)C)NC(=O)[C@H](Cc1ccccc1)NC(=O)[C@H](CCC(=O)O)NC(=O)[C@H](C)NC(=O)[C@H](CC(C)C)NC(=O)[C@H](CCCNC(=N)N)NC(=O)[C@H](CCC(N)=O)NC(=O)[C@@H](NC(=O)[C@H](C)NC(=O)[C@@H]1CSSC[C@H](NC(=O)[C@H](CCCNC(=N)N)NC(=O)CC[C@H](NC(=O)CCCCCCCCCCCCCCCCCCC(=O)O)C(=O)O)C(=O)N[C@@H](CC(N)=O)C(=O)N[C@@H]([C@@H](C)O)C(=O)N[C@@H](C)C(=O)N[C@@H]([C@@H](C)O)C(=O)N1)[C@@H](C)O [Compound 49, [19CD]-isoGlu-RC()NTATC()ATQRLAEFLHHSSNNFA-Ile(Me)-LSSTNVGSNTP-NH2] ({C20 diacid-γGlu}-RCNTATCATQRLAEFLHHSSNNFA[NMeI]LSSTNVGSNTP-NH2; disulfide 2-7)
Solubility, Acetate buffer pH 4 [1]: II (II indicates solubility ≤ 1 mg/ml)
Solubility, Acetate buffer pH 5 [1]: II (II indicates solubility ≤ 1 mg/ml)
Solubility, Histidine buffer pH 6 [1]: II (II indicates solubility ≤ 1 mg/ml)
Solubility, Histidine buffer pH 7 [1]: II (II indicates solubility ≤ 1 mg/ml)
Solubility, Phosphate buffer pH 6 [1]: II (II indicates solubility ≤ 1 mg/ml)
Solubility, Phosphate buffer pH 7 [1]: II (II indicates solubility ≤ 1 mg/ml)
Solubility, Phosphate buffer pH 7.5 [1]: II (II indicates solubility ≤ 1 mg/ml)
EC50 [2]: 140 pM

CC[C@H](C)[C@@H](C(=O)N[C@@H](CC(C)C)C(=O)N[C@@H](CO)C(=O)N[C@@H](CO)C(=O)N[C@H](C(=O)N[C@@H](CC(N)=O)C(=O)N[C@H](C(=O)NCC(=O)N[C@@H](CO)C(=O)N[C@@H](CC(N)=O)C(=O)N[C@H](C(=O)N1CCC[C@H]1C(N)=O)[C@@H](C)O)C(C)C)[C@@H](C)O)N(C)C(=O)[C@H](C)NC(=O)CN(C)C(=O)[C@H](CC(N)=O)NC(=O)[C@H](CC(N)=O)NC(=O)[C@H](CO)NC(=O)[C@H](CO)NC(=O)[C@H](Cc1c[nH]cn1)NC(=O)[C@H](Cc1c[nH]cn1)NC(=O)[C@H](CC(C)C)NC(=O)[C@H](Cc1ccccc1)NC(=O)[C@H](CCC(=O)O)NC(=O)[C@H](C)NC(=O)[C@H](CC(C)C)NC(=O)[C@H](CCCNC(=N)N)NC(=O)[C@H](CCC(N)=O)NC(=O)[C@@H](NC(=O)[C@H](C)NC(=O)[C@@H]1CSSC[C@H](NC(=O)[C@H](CCCNC(=N)N)NC(=O)CC[C@H](NC(=O)CCCCCCCCCCCCCCCCCCC(=O)O)C(=O)O)C(=O)N[C@@H](CC(N)=O)C(=O)N[C@@H]([C@@H](C)O)C(=O)N[C@@H](C)C(=O)N[C@@H]([C@@H](C)O)C(=O)N1)[C@@H](C)O [Compound 50, [19CD]-isoGlu-RC()NTATC()ATQRLAEFLHHSSNN-Gly(Me)-A-Ile(Me)-LSSTNVGSNTP-NH2] ({C20 diacid-γGlu}-RCNTATCATQRLAEFLHHSSNN[Sar]A[NMeI]LSSTNVGSNTP-NH2; disulfide 2-7)
Solubility, Acetate buffer pH 4 [1]: SS (SS indicates solubility ≥ 1mg/ml)
Solubility, Acetate buffer pH 5 [1]: SS (SS indicates solubility ≥ 1mg/ml)
Solubility, Histidine buffer pH 6 [1]: SS (SS indicates solubility ≥ 1mg/ml)
Solubility, Histidine buffer pH 7 [1]: SS (SS indicates solubility ≥ 1mg/ml)
Solubility, Phosphate buffer pH 6 [1]: SS (SS indicates solubility ≥ 1mg/ml)
Solubility, Phosphate buffer pH 7 [1]: SS (SS indicates solubility ≥ 1mg/ml)
Solubility, Phosphate buffer pH 7.5 [1]: SS (SS indicates solubility ≥ 1mg/ml)
EC50 [2]: 140 pM
